Here are results for 12 compounds from patent publication US12357582B2, “Hydrophobic ion pairing and flash nanoprecipitation for formation of controlled-release nanocarrier formulations” (The Trustees of Princeton University, priority 2017, dated 2025).

Series [1] can be described thus: Ion-pairing screening using polymyxin B API. Conditions: for Precipitation: polymyxin B API mixed with IP in water; for Reprecipitation: polymyxin B:IP organic solution diluted ten-fold in water; for Organic Dissolution: polymyxin B:IP pellet in organic solvent (THF); for precipitation upon mixing and NC formation: FIG. 4, polymyxin. The format is physicochemical. Details: key to Reprecipitation: + details re-precipitation observed; − details no re-precipitation observed; key to Organic Dissolution: ++ details complete dissolution; + details non-complete dissolution; key to Precipitation: +++: + details qualitative observations of the amount of solid formed; ++: + details qualitative observations of the amount of solid formed; + details qualitative observations of the amount of solid formed; − details no solids formed. How it is done: (§1) The fifteen ion pairing (IP) reagents listed above were screened to assess if hydrophobic API salt forms would be formed and would precipitate from solution. Ion pair and API drug properties were calculated with Molinspiration software (Molinspiration Cheminformatics, Slovakia). APIs were dissolved in water at 5 mg mL^−1 concentration and mixed with IPs dissolved in water at varying concentrations to yield different API to IP ratios. The screening process determines whether a particular IP may be used with a given API for NC formation.
(§2) In the case of pre-ion pairing, API and IP are mixed in water to form a water-insoluble precipitate (referred to as an API:IP complex). The water is then removed, and the API:IP complex is dissolved into an organic solvent (along with a block copolymer) for use in the organic stream in FNP. In this case, the API:IP complex is treated as a component in the organic stream of normal FNP. The screening process for the pre-ion paired method FNP involves four sequential tests. • 1. The first test examines the solubility of the IP agent. IP is added to DI water at a concentration that would be required for a 1:1 API:IP charge ratio if the API were dissolved at 5 mg mL^−1. (In this text the ratios are presented as charge ratios of API:IP.) Substantial […] in water is required for successful ion pairing. • 2. The second test examines whether an in situ API:IP complex can be formed in a single step. For example, The second test examines whether solids precipitate upon mixing of the aqueous IP solution with an aqueous API solution. Alternatively, IP in an organic, but water miscible, solution is mixed against the aqueous API solution. The final solution is checked visually to see if precipitation has occurred. In this test, the IP solution is at a concentration such that mixing equal volumes of IP solution and API solution will form a 1:1 API to IP charge ratio. Four API:IP ratios are investigated: 200 μL API solution is mixed with 100 μL IP solution for a 1:0.5 charge ratio; 200 μL API solution is mixed with 200 μL IP solution for a 1:1 charge ratio; 200 μL API solution is mixed with 400 μL IP solution for a 1:2 charge ratio; and 200 μL API solution is mixed with 800 μL IP solution for a 1:4 charge ratio. • 3. The third test examines whether the API:IP complex can be solubilized in the organic phase for subsequent FNP NC formation. Pellets of the precipitate formed in the second test are tested to see if they are soluble in a water-miscible organic solvent such as tetrahydrofuran (THF) or more polar solvents such as dimethyl sulfoxide (DMSO) or methanol (MeOH). For example, if precipitates were formed in the second test, the mixture can be centrifuged at 20800 rcf for 20 minutes, and the aqueous supernatant can be removed in order to recover pelleted precipitate. 200 μL of organic solvent can be added to the pellet; the solution can then be mixed to determine whether the pellet dissolves. • 4. The final (fourth) test assesses if the hydrophobic API:IP complex will re-precipitates when mixed with water, e.g., upon FNP mixing with water as the antisolvent. The organic solvent containing API:IP from the third test is diluted ten-fold in water, and precipitate formation is examined. If a precipitate forms, then the construct is suitable for use in FNP. In Situ Ion Pairing
(§3) Several water-soluble counter ion salts IPs were chosen for this investigation to determine the physical properties of the counter ions required for successful complex formation (FIG. 3). A range of carboxylate and sulfonate salt IPs whose acid forms have pKa ranging 5 to −1.9 were tested, as well as salts with a wide range of solubilities and LogP values as high as 7.6 or as low as −4.92. API was dissolved at 5 mg mL^−1 in water in 1× volume, and rapidly mixed with 1× volume of dissolved IP to give a final mixture containing a 1:1 API:IP charge ratio. Mixtures were visually observed to assess if precipitates rapidly formed.

Series [2] is described as follows: Ion-pairing screening using gentamicin API. The series is classed as physicochemical. Details: key to Reprecipitation: + details reprecipitation observed; − details no reprecipitation observed; key to Organic Dissolution: ++ details complete dissolution; + details non-complete dissolution; key to Precipitation: +++: + details qualitative observations of the amount of solid formed; ++: + details qualitative observations of the amount of solid formed; + details qualitative observations of the amount of solid formed; − details no solids formed. Conditions: for Precipitation: gentamicin API mixed with IP in water; for Reprecipitation: gentamicin:IP organic solution diluted ten-fold in water; for Organic Dissolution: gentamicin:IP pellet in organic solvent (THF). How it is done: as §1, §2
as §3, with “formed. […]” for “formed.”

As for `CC1(C)C2CC[C@]1(CS(=O)(=O)O)C(=O)C2` [(1R)-(-)-10-Camphorsulfonic Acid, (1R)-(−)-10-camphorsulfonic acid], the Precipitation entry in series [1] and in series [2] was “−” each time.

In the case of `O=S(=O)(O)c1ccccc1` [Benzenesulfonic Acid Monohydrate, benzenesulfonic acid monohydrate], the Precipitation entry in series [1] and in series [2] was “−” each time.

As to `O=S(=O)([O-])CCS(=O)(=O)[O-].[Na+].[Na+]` [Sodium 1,2-Ethanedisulfonate, sodium 1,2-ethanesulfonate], the Precipitation result in series [1] and in series [2] was “−” in each case.

`CCCCCCCCCCS(=O)(=O)[O-].[Na+]` [Sodium 1-Decanesulfonate, sodium 1-decanesulfonate]: in series [1], the Precipitation entry was “+++”, the Reprecipitation entry was “+” and the “Organic Dissolution” value is given as “++”. For the same compound, in series [2], the Precipitation entry is recorded as “+++”, the Reprecipitation entry is “+” and the “Organic Dissolution” value was “++”.

On to `CCCCCCCS(=O)(=O)[O-].[Na+]` [Sodium 1-Heptanesulfonate, sodium 1-heptanesulfonate], for which, in series [1], the Precipitation entry is “+”, the Reprecipitation result is “−” and the “Organic Dissolution” value is on record as “+”. Moreover, the Precipitation result in series [2] is recorded as “−”.

Turning to `CCCCCCCCS(=O)(=O)[O-].O.[Na+]` [Sodium 1-Octanesulfonate Monohydrate, sodium 1-octanesulfonate monohydrate], in series [1], the Precipitation result is recorded as “+++”, the Reprecipitation result was “−” and the “Organic Dissolution” value was “++”. Further, in series [2], the Precipitation result is “++”, the Reprecipitation entry is “−” and the “Organic Dissolution” value was “++”.

Turning to `O=S(=O)([O-])c1ccc2ccccc2c1.[Na+]` [Sodium 2-Naphthalenesulfonate, sodium 2-naphthalenesulfonate], in series [1], the Precipitation entry is recorded as “++”, the Reprecipitation result is “−” and the “Organic Dissolution” value is “++”. Besides, in series [2], the Precipitation entry is recorded as “++”, the Reprecipitation entry is listed as “−” and the “Organic Dissolution” value is given as “++”.

`CCCCCCCCCC(=O)[O-].[Na+]` [Sodium Decanoate, sodium decanoate]: in series [1], the Precipitation entry is reported as “++” and the Reprecipitation entry was “−”. For the same compound, the Precipitation result in series [2] is given as “+”.

In the case of `CCCCCCCCCCCCOS(=O)(=O)[O-].[Na+]` [Sodium Dodecyl Sulfate, sodium dodecyl sulfate], in series [1], the “precipitation upon mixing and NC formation” value is “rapid precipitation and successful NC formation”; the Precipitation entry is “+++”; the Reprecipitation entry is “+”; the “Organic Dissolution” value was “++”. For the same compound, in series [2], the Precipitation entry was “+++”, the Reprecipitation result is recorded as “+” and the “Organic Dissolution” value is “++”.

For the compound `CCCCCCCCCCCCc1ccc(S(=O)(=O)[O-])cc1.[Na+]` [Sodium Dodecylbenzenesulfonate, sodium dodecylbenezenesulfonate], in series [1], the “precipitation upon mixing and NC formation” value was “rapid precipitation and successful NC formation”; the Precipitation entry is “+++”; the Reprecipitation entry is “+”; the “Organic Dissolution” value was “++”. Moreover, in series [2], the Precipitation entry is recorded as “+++”, the Reprecipitation result is listed as “+” and the “Organic Dissolution” value was “++”.

Consider `CCCCCC(=O)[O-].[Na+]` [Sodium Hexanoate, Sodium hexanoate], for which the Precipitation entry in series [1] and in series [2] was “−” each time.

For the compound `CCCCCCCCCCCCCC(=O)[O-].[Na+]` [Sodium Myristate, sodium myristate], the figures for the Precipitation entry in series [1] and in series [2] were “++” and “−”, respectively.
